Earlier results on one compound are cited in patent publication US6770263B1, “Compositions and methods for the treatment of aches and pains” (NatureWell, Incorporated, priority 2001, dated 2004).

For this data set the following is noted: following the administration of 500 mg aspirin.

For the compound `CC(=O)Oc1ccccc1C(=O)O` [aspirin, acetylsalicylic acid], the plasma level was 130 µM.
